Reference: patent US4843087A (priority 1986, dated 1989)
Converted amounts (≈) assume the structure as drawn. Read-outs that look alike come from different tables or passages of the source.

Experiments:
enteroviruses = test: microbe, parasite or virus in culture; assay type: cell-based; details: Enterovirus, read-out: MIC80
[1] = test system: human rhinovirus (HRV) serotypes; test: microbe, parasite or virus in culture; assay type: cell-based; details: for MIC50: read-out: Rhinovirus MIC50
coxsackie virus A-9 = test: in vivo efficacy in coxsackie virus A-9 mouse infection model
[2] = test system: poliovirus, type 2, MEF strain; test: animal or person; assay type: in vivo, white Swiss mice; details: Enterovirus C, in Mus musculus, po, 336 h, read-out: Survivors Day 14 Post Infection
Polio 2 = test: microbe, parasite or virus in culture; assay type: cell-based, poliovirus; details: Enterovirus C, HeLa, read-out: Polio 2 MIC
echovirus-9 = test: in vivo efficacy in echovirus-9 mouse infection model
[3] = blood plasma concentration in dogs after oral administration; assay type: in vivo; details: dog, beagle dogs, fasted, oral 25 mg/kg in corn oil, up to six hours
Description: The blood plasma concentrations of the compounds of the invention were measured in beagle dogs by the following procedure: Animals ranging in weight from 8.5 to 11.5 kg were fasted overnight prior to oral administration of 25 mg/kg of the test compound dissolved in corn oil (125 mg/ml) and contained in gelatin capsules. Blood samples were collected at selected time intervals up to six hours post-medication and analyzed by standard chromatographic procedures to determine the mean maximum concentration of the test compound in micrograms per milliliter [Mean Cmax, μg/ml].

Row | SMILES | IC (MIC80 of serotype panel) (enteroviruses) | IC (MIC80 of serotype panel) ([1]; read-out: MIC80) | MIC50 [1] | IC (MIC80 of serotype panel) ([1]; read-out: Rhinovirus MIC80) | ED50 (coxsackie virus A-9; Mus musculus, po, read-out: PD50) | oral activity in coxsackie virus A-9 infections (coxsackie virus A-9; mouse infection model, oral) | responders at 50 mg/kg [2] | responders at 100 mg/kg [2] | responders at 200 mg/kg [2] | MIC (Polio 2) | oral activity in echovirus-9 infections (echovirus-9) | Cmax [3]
1 | Cc1cc(CCCCCOc2c(Cl)cc(C3=NCCO3)cc2Cl)on1 [5-{5-[2,6-Dichloro-4-(4,5-dihydro-2-oxazolyl)phenoxyl]-pentyl}-3-methylisoxazole] | 1.6 µg/mL | 0.23 µg/mL | 0.07 µg/mL (≈ 0.183 µM) | 0.126 µg/mL | 2.5 mg/kg | potent oral activity | 10% | 25% | 30% | 0.59 µg/mL (≈ 1.54 µM) | potent oral activity | 1570 ± 350 ng/mL
2 | Cc1cc(CCCCCOc2c(C)cc(C3=NCCO3)cc2C)on1 [Example 58, 5-{5-[4-(4,5-Dihydro-2-oxazolyl)-2,6-dimethylphenoxy]pentyl}-3-methylisoxazole] |  |  | 0.15 µg/mL (≈ 0.438 µM) | 0.43 µg/mL |  |  |  |  |  | 3.1 µg/mL (≈ 9.05 µM) |  | 4260 ± 470 ng/mL
3 | Cc1cc(CCCCC(C)Oc2c(Cl)cc(C3=NCCO3)cc2Cl)on1 (centres unmarked) [Example 109, 5-{5-[2,6-Dichloro-4-(4,5-dihydro-2-oxazolyl)phenoxy]hexyl}-3-methylisoxazole] |  |  | 0.16 µg/mL (≈ 0.403 µM) | 0.89 µg/mL |  |  |  |  |  | 2.9 µg/mL (≈ 7.3 µM) |  | 2110 ± 610 ng/mL
